Like-named read-outs stand apart in the source and are kept apart here.
Columns and labels:
[1] = tested on: SARS-CoV-2; assay: SARS-CoV-2 replication in Vero cells (qRT-PCR); assay type: cell-based; details: read-out: EC50, inhibition of 50% SARS-CoV-2 replication in Vero cells
[2] = tested on: SARS-CoV-2; assay: GA treatment of COVID-19 golden hamster via intranasal administration; assay type: in vivo, golden hamster rats; details: nasal spray 25 mg/kg.bw daily, day 4
[3] = tested on: BALB/c mice; details: cited from earlier work
[4] = tested on: SARS-CoV-2; details: Rothan et al, Virology 2020; read-out: EC50, SARS-CoV-2 replication in infected Huh cells; cited from earlier work
[5] = tested on: macrophage RAW264.7 cells; assay: Cell viability CCK8, RAW264.7 cells; assay type: cell-based; details: 48 hrs
Method: (§1) To test whether GA and AF are toxic to normal cells, Vero E6, RAW264.7, and 16HBE cell lines were tested. Various doses of AURANOFIN or GA gold cluster were added into cell culture media respectively. After 48 hours of incubation, cell viability was checked by CCK8 (Beyotime, China) following the manufacturer’s instruction, all studies were carried out in triplicate. All cell lines were obtained from ATCC with authentication service.

[6] = tested on: IL-6, IL-1β, TNF-α expression and NFκB pathway in RAW 264.7 cells; assay: Western blot of cytokine expression and NFκB pathway, RAW 264.7 cells; assay type: cell-based; details: AF 1.2 µM, GA 40 µM
Method: (§2) RAW 264.7 or 16HBE cells were seeded into 6 well plates at a density of 2 × 10^6cells/well. […] The collected cell lysates were centrifuged at 13000 rpm for 10 min, and the supernatants were stored for the subsequent Western Blot analysis. The protein concentrations of the supernatants were determined using a microplate spectrophotometer (SPECTRAMAX M4 of Molecular Devices, USA) at a wavelength of 595 nm. An equal quantity of proteins (50 µg) was separated by running on 10% SDS-PAGE and the separated proteins were transferred to a polyvinylidene fluoride (PVDF) membrane (0.45 µm, Millipore, USA). […]

[7] = tested on: Vero E6 cell; assay: Cell viability CCK8, Vero E6 cells; assay type: cell-based; details: 48 hrs
Method: as §1

[8] = tested on: SD Rat; details: cited from earlier work
[9] = tested on: human bronchial epithelial cells (16HBE); assay: Cell viability CCK8, 16HBE cells; assay type: cell-based; details: 16HBE epithelial cell, 48 hrs
Method: as §1

[10] = tested on: inflammatory cytokine levels; details: oral AF 6-9 mg/kg.bw; intraperitoneal GA 5 mg/kg.bw; cited from earlier work
[11] = tested on: IL-6, IL-1β, TNF-α expression and NFκB pathway in 16HBE cells; assay: Western blot of cytokine expression and NFκB pathway, 16HBE cells; assay type: cell-based, human
Method: as §2

[12] = target: SARS-CoV-2 M^pro (Severe acute respiratory syndrome coronavirus 2, UniProt P0DTD1); assay: M^pro protease activity FRET assay; assay type: biochemical; details: no value printed (data not shown or figure only)

For `CCC(CC)COC(=O)[C@H](C)N[P@](=O)(OC[C@H]1O[C@@](C#N)(c2ccc3c(N)ncnn23)[C@H](O)[C@@H]1O)Oc1ccccc1`, the EC50 ([1]; Severe acute respiratory syndrome coronavirus 2, Vero, 48 h) was about 0.65 µM and the “average pathological score of lung (INHAND)” value [2] was “approx. 2.7”.

For `CC(=O)OC[C@H]1O[C@@H]([S-])[C@H](OC(C)=O)[C@@H](OC(C)=O)[C@@H]1OC(C)=O.CCP(CC)CC.[Au+]` [AF, AURANOFIN], the LD50 ([3]; BALB/c Mice, AF known value) is listed as “LD50, about 33.8 mg/kg.bw”, the “intraperitoneal LD50” value ([3]; mice, known value) is listed as “about 33.8 mg/kg” and the EC50 [4] is listed as about 1.4 µM. For the same molecule, the CC50 [5] was about 2.63 µM, the EC50 ([1]; MOI 0.015, 48 h.p.i., qRT-PCR) was about 0.83 µM and the “phosphorylation of IKK, IκB, and p65 (NFκB activation)” value ([6]; inflammatory macrophage cells) was “inhibit”. For the same molecule, the “IL-6, IL-1β, and TNF-α expression levels” value ([6]; macrophage cells, TNFα 50 ng/mL, 24 hrs) was “significantly suppressed”, the CC50 [7] was about 2.27 µM and the LD50 ([8]; SD Rat, AF known value) was “LD50, about 25 mg/kg.bw”. For the same molecule, the “intraperitoneal LD50” value ([8]; rat, known value) was “about 25.5 mg/kg”, the CC50 [9] was about 0.63 µM and the inflammatory cytokine levels [10] was “significant suppression”. For the same molecule, the “phosphorylation level of IKK, IκB, p65 and IL-6, IL-1β, TNF-α expression” value ([11]; bronchial epithelial cells, AF 0.15 µM, GA 20 µM) was “significantly inhibited” and the “IL-6, IL-1β, and TNF-α expression levels” value ([11]; human bronchial epithelial cells, TNFα 50 ng/mL, 24 hrs, AF 1.2 µM, GA 40 µM) was “significantly suppressed”.

With `OC[C@H]1O[C@H]([S-])[C@H](O)[C@@H](O)[C@@H]1O.[Au+]` [aurothioglucose] the “inhibition / suppression of M^pro protease activity (in words)” value [12] was “able to inhibit”.

— US20230241101A1 (priority 2020, published 2023)
